Tests used:
[1] = Refractive index (Kruess AR 4 D Abbe refractometer); format: physicochemical; details: 20.0° C., wavelength 589 nm
Description: The refractive index of the halogenated epoxy functional ether derivative was measured with a Kruess AR 4 D device (refractometer according to Abbe's measure principle). The refractive index was measured at 20.0° C. and at a wavelength of 589 nm.

[2] = tested on: Salmonella Strains TA98 and TA100; experiment: AMES mutagenicity testing protocol (OECD Guideline 471, ISO 10993-3); format: cell-based; set-up: key: tested to be non mutagenic
From the text: The mutagenicity of the halogenated epoxy functional ether derivative according to the AMES mutagenicity testing protocol has been tested according to OECD Guideline 471 and ISO 10993-3 (2003).

Compound	Refractive Index [1]	Mutagenic [yes/no] [2]
CC(C)(c1cc(Br)c(OCCCC2CO2)c(Br)c1)c1cc(Br)c(OCCCC2CO2)c(Br)c1 (stereo not shown) [Example 5, 2,2-Bis[3,5-dibromo-4-(4,5-epoxy-pentyloxy)-phenyl]-propane]	1.604	n^1)
Clc1cccc(CC2CO2)c1OCCC1CO1 (stereo not shown) [Example 6, 4-[2-(2,3-epoxy-propyl)-6-chloro-phenoxy]-1,2-epoxybutane]	1.535	
1,5-Bis[2-(2,3-epoxy-propyl)-6-chloro-phenyl]-pentane [Example 1]	1.552	n^1)
C[Si]1(CCC2CCC3OC3C2)O[Si](C)(CCC2CCC3OC3C2)O[Si](C)(CCC2CCC3OC3C2)O[Si](C)(CCC2CCC3OC3C2)O1 (stereo not shown) [Reference Compound 1, 1,3,5,7-Tetrakis[2-(3,4-epoxycyclohexyl)-ethyl]-1,3,5,7-tetramethyl-cyclotetrasiloxane, reference compound]	1.496	
c1cc(OCC2CO2)ccc1Cc1ccc(OCC2CO2)cc1 (stereo not shown) [Reference Compound 3, Bis[4-(2,3-epoxy-propyloxy)-phenyl]-methane, reference compound]	1.579	
C[Si](CCC1CCC2OC2C1)(CCC1CCC2OC2C1)c1ccccc1 (stereo not shown) [Reference Compound 2, Bis[2-(3,4-epoxycyclohexyl)-ethyl]-methyl-phenyl-silane, reference compound]	1.536	
1,5-Bis[2-(2,3-epoxy-propyl)-4,6-dichloro-phenyl]-pentane [Example 2]	1.561	n^1)
CC(C)(c1cc(Br)c(OCCC2CO2)c(Br)c1)c1cc(Br)c(OCCC2CO2)c(Br)c1 (stereo not shown) [Example 4, 2,2-Bis[3,5-dibromo-4-(3,4-epoxy-butyloxy)-phenyl]-propane]	1.610	n^1)
CC(C)(c1cc(Cl)c(OCCCC2CO2)c(Cl)c1)c1cc(Cl)c(OCCCC2CO2)c(Cl)c1 (stereo not shown) [Example 3, 2,2-Bis[3,5-dichloro-4-(4,5-epoxy-pentyloxy)-phenyl]-propane]	1.571	n^1)
CC(C)(c1ccc(OCCC2CO2)cc1)c1ccc(OCCC2CO2)cc1 (stereo not shown) [Reference Compound 4, 2,2-Bis[4-(3,4-epoxy-butyloxy)-phenyl]-propane, reference compound]	1.563	
CC(C)(c1ccc(OCCCC2CO2)cc1)c1ccc(OCCCC2CO2)cc1 (stereo not shown) [Reference Compound 5, 2,2-Bis[4-(4,5-epoxy-pentyloxy)-phenyl]-propane, reference compound]	1.551	
